The source of these data is patent publication US20240228506A1, “RIPK1 INHIBITORS AND METHODS OF USE” (Merck Sharp & Dohme LLC, priority 2021, published 2024).

Molecules are shown by their SMILES.

The test has as its target T1, GST-RIPK1 (recombinant GST-RIPK1 kinase domain (residues 1-327)) (Homo sapiens, UniProt Q13546).
T1 construct: recombinant GST-RIPK1 kinase domain (residues 1-327) enzyme; made in house; host or cells: baculovirus-transfected Sf21 insect cells
T1 sequence (Q13546 1-327): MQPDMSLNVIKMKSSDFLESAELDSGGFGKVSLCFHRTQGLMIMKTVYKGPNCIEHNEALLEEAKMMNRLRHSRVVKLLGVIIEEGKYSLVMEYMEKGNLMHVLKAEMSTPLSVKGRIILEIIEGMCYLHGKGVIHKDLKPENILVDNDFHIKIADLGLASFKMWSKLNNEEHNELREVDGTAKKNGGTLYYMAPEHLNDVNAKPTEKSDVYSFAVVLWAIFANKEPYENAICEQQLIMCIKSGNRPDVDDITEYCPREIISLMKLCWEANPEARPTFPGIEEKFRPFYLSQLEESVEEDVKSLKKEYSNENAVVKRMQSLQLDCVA
In words: RIPK1-ADP-Glo enzymatic assay. The test is classed as biochemical. Conditions: 25 nM GST-RIPK1, 300 μM ATP, 3 μM dephosphorylated-MBP; 30 minutes pre-incubation, 150 minutes reaction; ten-point titration. The essentials: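 Ten-point 1:3 titrations from 100000 nM, 1% DMSO, were preincubated 30 min with 25 nM GST-RIPK1 (1-327) before starting with 300 μM ATP plus 3 μM dephosphorylated MBP; 150 min reaction. ADP-Glo luminescence measured ATP-to-ADP conversion; EC50 by four-parameter sigmoidal regression.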
A general note: ADP-Glo first removes unused ATP, then detects ADP through luciferase.
In the case of `CC(C)(C(=O)N1C[C@@H]2C[C@H]1c1cncc(C#Cc3ccc4nccnc4c3)c1O2)C(F)F` [Compound 2-34, 3,3-Difluoro-2,2-dimethyl-1-((2S,5S)-9-(quinoxalin-6-ylethynyl)-2,3-dihydro-2,5-methanopyrido[3,4-f][1,4]oxazepin-4(5H)-yl)propan-1-one], the IC50 was 15 nM. As for `CC(C)(C)C(=O)N1C[C@@H]2C[C@H]1c1cncc(C#Cc3cc(C(F)(F)F)ccn3)c1O2` [Compound 2-35, 2,2-dimethyl-1-((2S,5S)-9-((4-(trifluoromethyl)pyridin-2-yl)ethynyl)-2,3-dihydro-2,5-methanopyrido[3,4-f][1,4]oxazepin-4(5H)-yl)propan-1-one], the half-inhibitory concentration (IC50) turned out to be 176 nM.

With `CC(C)(C)C(=O)N1C[C@@H]2C[C@H]1c1cncc(C#CC(O)(c3ccccc3)C(F)(F)F)c1O2` (stereo partly drawn) [Compound 2-36, 2,2-dimethyl-1-((2S,5S)-9-(4,4,4-trifluoro-3-hydroxy-3-phenylbut-1-yn-1-yl)-2,3-dihydro-2,5-methanopyrido[3,4-f][1,4]oxazepin-4(5H)-yl)propan-1-one], the IC50 came to 525 nM.

Take `CC(C)(C)C(=O)N1C[C@@H]2C[C@H]1c1cncc(C#Cc3ccc(OC(F)(F)F)cc3)c1O2` [Compound 2-37, 2,2-dimethyl-1-((2S,5S)-9-((4-(trifluoromethoxy)phenyl)ethynyl)-2,3-dihydro-2,5-methanopyrido[3,4-f][1,4]oxazepin-4(5H)-yl)propan-1-one]: the IC50 was found to be 47 nM. Consider `COc1ccc2cc(C#Cc3cncc4c3O[C@H]3C[C@@H]4N(C(=O)C(C)(C)C)C3)ccc2c1` [Compound 2-38, 1-((2S,5S)-9-((6-methoxynaphthalen-2-yl)ethynyl)-2,3-dihydro-2,5-methanopyrido[3,4-f][1,4]oxazepin-4(5H)-yl)-2,2-dimethylpropan-1-one], for which the IC50 turned out to be 25 nM. As to `CC(C)(C(=O)N1C[C@@H]2C[C@H]1c1cncc(C#Cc3ccnc(N)c3)c1O2)C(F)F` [Compound 2-39, 1-((2S,5S)-9-((2-aminopyridin-4-yl)ethynyl)-2,3-dihydro-2,5-methanopyrido[3,4-f][1,4]oxazepin-4(5H)-yl)-3,3-difluoro-2,2-dimethylpropan-1-one], the IC50 is 24 nM.

Take `CC(C)(C(=O)N1C[C@@H]2C[C@H]1c1cncc(C#CCn3nnc4ccccc43)c1O2)C(F)F` [Compound 2-40, 1-((2S,5S)-9-(3-(1H-benzo[d][1,2,3]triazol-1-yl)prop-1-yn-1-yl)-2,3-dihydro-2,5-methanopyrido[3,4-f][1,4]oxazepin-4(5H)-yl)-3,3-difluoro-2,2-dimethylpropan-1-one]: the IC50 is 140 nM. Under `CC(C)(C(=O)N1C[C@@H]2C[C@H]1c1cncc(C#Cc3ccc(F)cc3)c1O2)C(F)F` [Compound 2-41, 3,3-difluoro-1-((2S,5S)-9-((4-fluorophenyl)ethynyl)-2,3-dihydro-2,5-methanopyrido[3,4-f][1,4]oxazepin-4(5H)-yl)-2,2-dimethylpropan-1-one] stands 56 nM.

`CC(C)(C(=O)N1C[C@@H]2C[C@H]1c1cncc(C#Cc3cccc(F)c3)c1O2)C(F)F` [Compound 2-42, 3,3-difluoro-1-((2S,5S)-9-((3-fluorophenyl)ethynyl)-2,3-dihydro-2,5-methanopyrido[3,4-f][1,4]oxazepin-4(5H)-yl)-2,2-dimethylpropan-1-one]: the IC50 came out at 42 nM. `CC(C)(C(=O)N1C[C@@H]2C[C@H]1c1cncc(C#Cc3ccc(F)cc3F)c1O2)C(F)F` [Compound 2-43, 1-((2S,5S)-9-((2,4-difluorophenyl)ethynyl)-2,3-dihydro-2,5-methanopyrido[3,4-f][1,4]oxazepin-4(5H)-yl)-3,3-difluoro-2,2-dimethylpropan-1-one]: the IC50 came to 48 nM.

For the compound `CC(C)(C(=O)N1C[C@@H]2C[C@H]1c1cncc(C#Cc3ccccc3F)c1O2)C(F)F` [Compound 2-44, 3,3-difluoro-1-((2S,5S)-9-((2-fluorophenyl)ethynyl)-2,3-dihydro-2,5-methanopyrido[3,4-f][1,4]oxazepin-4(5H)-yl)-2,2-dimethylpropan-1-one], the IC50 came to 34 nM.

In general, IC50 refers to the concentration that gives 50% inhibition.
